# Assay results reported in US7951819B2, “Imidazo[4, 5-B]pyridin-2-one and oxazolo[4, 5-B] pyridin-2-one compounds and analogs thereof as cancer therapeutic compounds” (Cancer Research Technology Limited, priority 2006, dated 2011).
# How the values were obtained:
# [1] = target: T1, V600E B-RAF (Homo sapiens, UniProt P15056, V600E); test: BRAF V600E Kinase Assay; assay type: biochemical
# T1 construct: MDRGSH6 (MDRGS-His6) (N); made in house; host or cells: SF9 insect cells (detergent soluble extract / lysate, not purified)
# Description: B-raf kinase activity is measured using a 4-tiered cascade enzyme assay similar to that described by Marais R., et al., 1997, J. Biol. Chem., Vol. 272, pp. 4378-4383. B-Raf containing the V600E mutation (Davies, H., et al., 2002, Nature, Vol. 417, pp. 949-954) and an N-terminal MDRGSH6 tag is expressed in SF9 insect cells. Detergent soluble extracts from these cells are diluted 1:100 into an assay mixture containing GST-MEK-H6 (6.5 μg/ml) and GST-ERK-H6 (100 μg/ml) in a buffer containing 800 μM ATP and appropriate concentrations of inhibitor or diluent as control. The mixture is incubated for up to 10 minutes at 30° C. to activate the ERK in a B-Raf dependent manner within the cascade. […] The extent of activation of the GST-ERK is then determined by adding a portion of this quenched reaction mixture to a further reaction mixture containing MBP and 100 μM ATP/gamma [^32P]ATP. After 12 minutes' incubation at 30° C., the incorporation of [^32P] into the MBP substrate, as a measure of B-raf activity, is determined by precipitation with phosphoric acid and isolation by filtration on p81 phosphocellulose paper. […]
# Alternatively, B-raf kinase activity is measured using a different 4-tiered cascade enzyme assay. […] The extent of activation of the GST-ERK is then determined by adding 0.033 μL (100 μM) HOT ^32Pα. […]
# Compounds were assessed by a kinase assay performed according to the following protocol. […]
# [2] = test system: ppERK; test: Phospho-ERK Cell-based Assay; details: cells incubated with test compound for 6 hours
# Description: Compounds were assessed using cell-based assays which were performed according to the following protocol.
# Plate out 16,000 cells/well in 99 μL medium in a 96-well plate.
# 2. Incubate the cells with test compound for 6 hours at 37° C.
# 5. Add 50 μL of 3 μg/mL primary antibody ppERK (Sigma M8159), diluted in 5% milk powder/TBS, to each well.
# 13. Read Europium Time Resolved Fluorescence in Victor2.
# Note that Europium counts are normalised for protein levels by dividing counts by absorbance.
# [3] = test system: WM266.4 melanoma cells; test: Cell proliferation (SRB) assay; assay type: cell-based; details: Homo sapiens, WM 266-4, 144 h, 6 days growth
# Description: Cultures of WM266.4 melanoma cells are routinely cultured in DMEM/10% foetal bovine serum, at 37° C., in 5% CO2 water saturated atmosphere. Cultures are maintained in exponential growth phase by sub-culturing before having become confluent (3-5 day intervals). Single cell suspensions are prepared by harvesting an 80 cm^2 tissue culture flask with 5 mL commercial trypsin EDTA. After 5 minutes, the detached cells are mixed with 5 mL fully complemented culture medium and centrifugally pelleted (1000 rpm for 7 minutes). After aspirating the supernatant, the cell pellet is re-suspended in 10 mL fresh medium and the cells fully disaggregated by drawing the whole volume up/down 5 times through a 19-gauge needle. The concentration of the cells is determined using a haemocytometer (1/10 dilution). A suitable volume to give at least a 2-fold excess for the number of tests being conducted, typically 100-200 mL, is prepared by diluting the cell suspension to 10,000/mL, and 100 μL/well dispensed into 96 well plates using a programmable 8-channel peristaltic pump, giving 1000 cells/well, leaving column 12 blank. […] The absorbance at 540 nm in each well (being proportional to the number of cells present) is determined using a plate reader. After averaging the results in rows A-D and E-H, the blank value ([…]) is subtracted, and results expressed as percentage of the untreated value (row 11). […]
# T1 sequence (P15056 whole entry V600E): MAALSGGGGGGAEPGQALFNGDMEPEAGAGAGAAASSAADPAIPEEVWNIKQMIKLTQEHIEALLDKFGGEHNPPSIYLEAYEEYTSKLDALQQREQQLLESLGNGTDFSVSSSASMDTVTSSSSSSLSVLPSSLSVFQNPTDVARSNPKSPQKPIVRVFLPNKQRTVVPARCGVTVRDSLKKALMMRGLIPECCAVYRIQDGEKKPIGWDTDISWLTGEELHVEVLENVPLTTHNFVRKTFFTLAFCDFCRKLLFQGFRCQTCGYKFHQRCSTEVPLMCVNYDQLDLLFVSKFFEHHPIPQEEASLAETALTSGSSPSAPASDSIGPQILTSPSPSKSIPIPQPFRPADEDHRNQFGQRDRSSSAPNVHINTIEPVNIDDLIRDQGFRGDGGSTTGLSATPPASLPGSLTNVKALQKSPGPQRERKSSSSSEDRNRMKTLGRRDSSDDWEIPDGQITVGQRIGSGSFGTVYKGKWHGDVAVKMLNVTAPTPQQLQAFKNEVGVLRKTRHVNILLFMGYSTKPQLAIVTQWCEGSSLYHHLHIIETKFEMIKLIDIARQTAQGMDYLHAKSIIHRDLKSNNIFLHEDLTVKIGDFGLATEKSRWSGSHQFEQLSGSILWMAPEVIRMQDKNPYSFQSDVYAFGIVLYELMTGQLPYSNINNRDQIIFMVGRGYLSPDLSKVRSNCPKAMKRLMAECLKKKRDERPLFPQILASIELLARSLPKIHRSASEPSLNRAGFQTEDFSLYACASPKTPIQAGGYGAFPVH
smiles,measurement,setting,value
"O=C(Nc1cccc(Oc2ccnc3[nH]c(=O)[nH]c23)c1)Nc1ccc(Cl)c(C(F)(F)F)c1 [CJS 3678, 1-(4-Chloro-3-(trifluoromethyl)phenyl)-3-(3-(2-oxo-2,3-dihydro-1H-imidazo[4,5-b]pyridin-7-yloxy)phenyl)urea]",IC50,[1],0.015 µM
same,IC50,[2],10.7 µM
same,IC50,[3],4.2 µM
